Values quoted from earlier work as cited in patent US4177261A, “Pharmaceutical composition and method of stimulating blood circulation and wound healing” (Thera Gesellschaft fur Patentverwertung mbH, priority 1977, dated 1979).
No end group written: not given here.

Conditions: intra-cuticular injection

| Substance | Quantity causing vehement pain reactions |
| --- | --- |
| RPPGFSPFR [Brady kinin, (NH2) arginine-proline-proline-glycine-phenylalanine-serine-proline-phenylalanine-arginine (COOH)] | about 0.1 micrograms per 1 milliliter of solution |
| kallidin: decapeptide; Bradykinin extended at the amino end by an additional lysine radical | about 0.1 micrograms per 1 milliliter of solution |
